Laboratory results reported in patent US5545547A, “Enzymes as agricultural chemical adjuvants” (priority 1992, dated 1996).

Key:
Assay in all cases: Greenhouse multispecies herbicide screen with/without P. mendocina enzyme
Format in all cases: in vivo
[1] = tested on: Giant Fox Tail
Method: (§1) Several plant species including weeds and crops are used in these experiments.
A number of herbicides from various chemical classes were compared in a multispecies screen for percent chlorosis, necrosis and vigor reduction both with and without application of the enzyme from Pseudomonas mendocina ATCC 53552 described earlier. […] Two different enzyme concentrations were used: 0.5 mg/ml (HE) and 0.05 mg/ml (LE) and applied at the rate of 40 gallons/acre. All spraying solutions were at pH 10 and contained 100 mm sodium phosphate each. Ratings were done at 6 and 12 days after the treatment. All the experiments were carried out in a greenhouse.
(§2) Chlorosis--figures represent percent of plants showing chlorosis.
(§3) Necrosis--figures represent percent of plants showing necrosis.
(§4) Vigor--figures represent percent of plants showing decreased vigor.
(§5) Phytotoxicity--figures represent the average percent of chlorosis, necrosis, and vigor for a given sample.

[2] = tested on: Turnip; conditions: one week after treatment
Excerpt: as §1
(§6) A number of herbicides from various chemical classes were compared in a multispecies screen for percent chlorosis, necrosis and vigor reduction both with and without application of the enzyme from Pseudomonas mendocina ATCC 53552 described earlier. The herbicides were applied to various plants at the manufacturers recommended doses and at 10% and 40% of the recommended dose. Two different enzyme concentrations were used: 0.5 mg/ml (HE) and 0.05 mg/ml (LE) and applied at the rate of 40 gallons/acre. All spraying solutions were at pH 10 and contained 100 mm sodium phosphate each. Ratings were done at 6 and 12 days after the treatment. All the experiments were carried out in a greenhouse.
as §2, §3, §4, §5
(§7) The method of Example 1 was used except that the enzyme was applied 2 hours prior to administering the agricultural chemical with the following results. Ratings were done two weeks after treatment

[3] = tested on: Soybeans; conditions: one week after treatment
Excerpt: as §1, §6, §2, §3, §4, §5, §7

[4] = HYVAR 10% dose, High Enzyme, one week after treatment
[5] = HYVAR 10% dose, Low Enzyme, one week after treatment
[6] = HYVAR 10% dose, No Enzyme, one week after treatment
[7] = HYVAR 18%, High Enzyme, two weeks after treatment
[8] = HYVAR 18%, Low Enzyme, two weeks after treatment
[9] = HYVAR 18%, No Enzyme, two weeks after treatment
[10] = HYVAR 40% dose, High Enzyme, one week after treatment
[11] = HYVAR 40% dose, Low Enzyme, one week after treatment
[12] = HYVAR 40% dose, No Enzyme, one week after treatment
[13] = HYVAR 100% dose, No Enzyme, one week after treatment

CCC(C)n1c(=O)[nH]c(C)c(Br)c1=O (stereo not drawn) [HYVAR, 5-bromo-6-methyl-3-(1-methylpropyl)-2,4-(1H,3H)-pyrimidinedione]
CHL (chlorosis) [1, 4]: 18%
NEC (necrosis) [1, 4]: 18%
PHY (phytotoxicity) [1, 4]: 22%
VIG (vigor) [1, 4]: 30%
CHL (chlorosis) [1, 5]: 50%
NEC (necrosis) [1, 5]: 30%
PHY (phytotoxicity) [1, 5]: 43%
VIG (vigor) [1, 5]: 50%
CHL (chlorosis) [1, 6]: 40%
NEC (necrosis) [1, 6]: 30%
PHY (phytotoxicity) [1, 6]: 40%
VIG (vigor) [1, 6]: 50%
NEC (necrosis) [1, 7]: 75%
PHY (phytotoxicity) [1, 7]: 75%
VIG (vigor) [1, 7]: 75%
CHL (chlorosis) [1, 8]: 73%
PHY (phytotoxicity) [1, 8]: 73%
CHL (chlorosis) [1, 9]: 65%
NEC (necrosis) [1, 9]: 63%
PHY (phytotoxicity) [1, 9]: 64%
VIG (vigor) [1, 9]: 63%
CHL (chlorosis) [1, 10]: 38%
NEC (necrosis) [1, 10]: 50%
PHY (phytotoxicity) [1, 10]: 30%
VIG (vigor) [1, 10]: 63%
CHL (chlorosis) [1, 11]: 43%
NEC (necrosis) [1, 11]: 65%
PHY (phytotoxicity) [1, 11]: 57%
VIG (vigor) [1, 11]: 63%
CHL (chlorosis) [1, 12]: 50%
NEC (necrosis) [1, 12]: 38%
PHY (phytotoxicity) [1, 12]: 48%
VIG (vigor) [1, 12]: 55%
CHL (chlorosis) [1, 13]: 60%
NEC (necrosis) [1, 13]: 60%
PHY (phytotoxicity) [1, 13]: 65%
VIG (vigor) [1, 13]: 75%
CK (chlorosis) ([2]; HYVAR 10% dose, High Enzyme): 50%
NEC (necrosis) ([2]; HYVAR 10% dose, High Enzyme): 85%
PHY (phytotoxicity) ([2]; HYVAR 10% dose, High Enzyme): 73%
VIG (vigor) ([2]; HYVAR 10% dose, High Enzyme): 83%
CK (chlorosis) ([2]; HYVAR 10% dose, Low Enzyme): 70%
NEC (necrosis) ([2]; HYVAR 10% dose, Low Enzyme): 90%
PHY (phytotoxicity) ([2]; HYVAR 10% dose, Low Enzyme): 84%
VIG (vigor) ([2]; HYVAR 10% dose, Low Enzyme): 93%
CK (chlorosis) ([2]; HYVAR 10% dose, No Enzyme): 70%
NEC (necrosis) ([2]; HYVAR 10% dose, No Enzyme): 93%
PHY (phytotoxicity) ([2]; HYVAR 10% dose, No Enzyme): 84%
VIG (vigor) ([2]; HYVAR 10% dose, No Enzyme): 90%
CK (chlorosis) ([2]; HYVAR 40% dose, High Enzyme): 97%
NEC (necrosis) ([2]; HYVAR 40% dose, High Enzyme): 97%
PHY (phytotoxicity) ([2]; HYVAR 40% dose, High Enzyme): 97%
VIG (vigor) ([2]; HYVAR 40% dose, High Enzyme): 98%
CK (chlorosis) ([2]; HYVAR 40% dose, Low Enzyme): 93%
NEC (necrosis) ([2]; HYVAR 40% dose, Low Enzyme): 95%
PHY (phytotoxicity) ([2]; HYVAR 40% dose, Low Enzyme): 94%
VIG (vigor) ([2]; HYVAR 40% dose, Low Enzyme): 95%
CK (chlorosis) ([2]; HYVAR 40% dose, No Enzyme): 65%
NEC (necrosis) ([2]; HYVAR 40% dose, No Enzyme): 73%
PHY (phytotoxicity) ([2]; HYVAR 40% dose, No Enzyme): 74%
VIG (vigor) ([2]; HYVAR 40% dose, No Enzyme): 85%
CK (chlorosis) ([2]; HYVAR 100% dose, No Enzyme): 100%
NEC (necrosis) ([2]; HYVAR 100% dose, No Enzyme): 95%
PHY (phytotoxicity) ([2]; HYVAR 100% dose, No Enzyme): 95%
VIG (vigor) ([2]; HYVAR 100% dose, No Enzyme): 90%
CHL (chlorosis) ([3]; HYVAR 10% dose, High Enzyme): 25%
NEC (necrosis) ([3]; HYVAR 10% dose, High Enzyme): 50%
PHY (phytotoxicity) ([3]; HYVAR 10% dose, High Enzyme): 42%
VIG (vigor) ([3]; HYVAR 10% dose, High Enzyme): 50%
CHL (chlorosis) ([3]; HYVAR 10% dose, Low Enzyme): 90%
NEC (necrosis) ([3]; HYVAR 10% dose, Low Enzyme): 83%
PHY (phytotoxicity) ([3]; HYVAR 10% dose, Low Enzyme): 88%
VIG (vigor) ([3]; HYVAR 10% dose, Low Enzyme): 90%
CHL (chlorosis) ([3]; HYVAR 10% dose, No Enzyme): 55%
NEC (necrosis) ([3]; HYVAR 10% dose, No Enzyme): 75%
PHY (phytotoxicity) ([3]; HYVAR 10% dose, No Enzyme): 68%
VIG (vigor) ([3]; HYVAR 10% dose, No Enzyme): 75%
CHL (chlorosis) ([3]; HYVAR 40% dose, High Enzyme): 45%
NEC (necrosis) ([3]; HYVAR 40% dose, High Enzyme): 50%
PHY (phytotoxicity) ([3]; HYVAR 40% dose, High Enzyme): 59%
VIG (vigor) ([3]; HYVAR 40% dose, High Enzyme): 83%
CHL (chlorosis) ([3]; HYVAR 40% dose, Low Enzyme): 55%
NEC (necrosis) ([3]; HYVAR 40% dose, Low Enzyme): 88%
PHY (phytotoxicity) ([3]; HYVAR 40% dose, Low Enzyme): 72%
VIG (vigor) ([3]; HYVAR 40% dose, Low Enzyme): 73%
CHL (chlorosis) ([3]; HYVAR 40% dose, No Enzyme): 45%
NEC (necrosis) ([3]; HYVAR 40% dose, No Enzyme): 60%
PHY (phytotoxicity) ([3]; HYVAR 40% dose, No Enzyme): 39%
VIG (vigor) ([3]; HYVAR 40% dose, No Enzyme): 73%
CHL (chlorosis) ([3]; HYVAR 100% dose, No Enzyme): 100%
NEC (necrosis) ([3]; HYVAR 100% dose, No Enzyme): 100%
PHY (phytotoxicity) ([3]; HYVAR 100% dose, No Enzyme): 100%
VIG (vigor) ([3]; HYVAR 100% dose, No Enzyme): 100%
